Experimental findings from PubChem BioAssay (NCI) are described below.

Where “and” joins values, the source holds several entries; their conditions need not be identical. Equal entries are not always repeated.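 Five compound concentrations were applied to cells in 96-well plates for 48 hours; endpoints were derived by simple linear interpolation of the resulting dose-response curve. Here, GI50 denotes the concentration required for 50% inhibition of growth. TGI denotes the concentration required for complete inhibition of growth.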 Where a SMILES comes first, the peptide text is derived from it. Bridges are numbered along the chain shown (N, C = ends). A value given as a limit tells only on which side of the number the result lay.

Some test systems named below: BT-549 breast; NCI-H460 lung; OVCAR-4 ovarian; SK-MEL-5 melanoma; SF-268 CNS; DU-145 prostate; HOP-62 NSCLC; HS 578T breast; COLO 205 colon; MALME-3M melanoma.
Experiment in all cases: inhibition of tumour cell growth, NCI panel, 48 h

`CC(=O)OCC1OC([S-])C(OC(C)=O)C(OC(C)=O)C1OC(C)=O.[Au+].c1ccc(CN2[CH-]N(Cc3ccccc3)C(c3ccccc3)=C2c2ccccc2)cc1`: the GI50 in the experiment with BT-549 breast is 2.03 µM and 0.375 µM; with NCI-H460 lung it was 3.71 µM and 0.732 µM; in the experiment with OVCAR-4 ovarian, 3.54 µM and 0.688 µM; with SK-MEL-5 melanoma it was 4.95 µM and 0.839 µM; with SF-268 CNS it was 2.43 µM and 0.458 µM; with DU-145 prostate it was 2.86 µM and 0.509 µM. Also, the GI50 was 4.56 µM and 1.11 µM with HOP-62 NSCLC; 2.62 µM and 0.396 µM with HS 578T breast; 3.59 µM and 0.881 µM in the experiment on COLO 205 colon; 1.93 µM and 0.278 µM in the experiment with MALME-3M melanoma. In addition, the TGI in the experiment with BT-549 breast is 4.32 µM and 2.69 µM; with NCI-H460 lung it was 15.5 µM and 2.42 µM; in the experiment with OVCAR-4 ovarian it was 15.3 µM and 5.82 µM; in the experiment on SF-268 CNS it was 6.11 µM and 1.78 µM; in the experiment with DU-145 prostate, 8.09 µM and 3.59 µM; in the experiment on HOP-62 NSCLC, 19.4 µM and 4.59 µM. The TGI is 8.56 µM and 7.74 µM in the experiment on HS 578T breast; 14.3 µM and 2.27 µM in the experiment on COLO 205 colon; 4.29 µM and 1.24 µM in the experiment with MALME-3M melanoma.
With `COC1/C=C/OC2(C)Oc3c(C)c(O)c4c(O)c(c(/C=N/N(c5ccccc5)c5ccccc5)c(O)c4c3C2=O)NC(=O)C(C)=C/C=C/C(C)C(O)C(C)C(O)C(C)C(OC(C)=O)C1C` (stereo not given), the GI50 was 2.5 µM in the experiment with BT-549 breast; 1.52 µM with NCI-H460 lung; 1.95 µM in the experiment on OVCAR-4 ovarian; 1.76 µM with SK-MEL-5 melanoma; 1.93 µM with SF-268 CNS; 2.37 µM in the experiment on DU-145 prostate. Also, the GI50 with HOP-62 NSCLC is 3.41 µM; in the experiment with HS 578T breast, 1.19 µM; with COLO 205 colon, 1.73 µM; in the experiment with MALME-3M melanoma, 1.83 µM. Moreover, the TGI in the experiment with BT-549 breast stood at 8.83 µM; in the experiment on NCI-H460 lung, 5.32 µM; in the experiment with OVCAR-4 ovarian it was 7.6 µM; in the experiment with SK-MEL-5 melanoma, 6.75 µM; in the experiment with SF-268 CNS, 8.51 µM; in the experiment with DU-145 prostate, 7.96 µM. Moreover, the TGI worked out at 10.3 µM in the experiment on HOP-62 NSCLC, 4.33 µM with HS 578T breast, 6.23 µM in the experiment on COLO 205 colon and 9.36 µM with MALME-3M melanoma.
Turning to `COc1ccccc1/C=C1\CCC(CN2CCOCC2)C1=O` (stereo not given), the TGI came to 29.8 µM in the experiment on BT-549 breast; 36 µM with NCI-H460 lung; 35.6 µM in the experiment with OVCAR-4 ovarian; 28.7 µM in the experiment on SK-MEL-5 melanoma; 41.7 µM with SF-268 CNS; 31.4 µM in the experiment on DU-145 prostate. The TGI is 50.2 µM in the experiment with HOP-62 NSCLC, above 100 µM in the experiment with HS 578T breast, 14.2 µM in the experiment with COLO 205 colon and 23.7 µM in the experiment with MALME-3M melanoma.
In the case of `CN(C)c1ccc2cc3c(cc2c1)Oc1ccccc1N3.[Cl][Zn][Cl]`, the GI50 is 14.4 µM in the experiment on BT-549 breast; 20.1 µM in the experiment with NCI-H460 lung; 2.75 µM in the experiment on OVCAR-4 ovarian; 3.16 µM with SK-MEL-5 melanoma; 13.6 µM in the experiment with SF-268 CNS; 8.24 µM in the experiment on DU-145 prostate. The GI50 with HS 578T breast is 24.7 µM; with MALME-3M melanoma it was 3.04 µM. Also, the TGI in the experiment on BT-549 breast stood at 27.7 µM; in the experiment on NCI-H460 lung, 52.2 µM; in the experiment with OVCAR-4 ovarian it was 13.6 µM; in the experiment with SK-MEL-5 melanoma, 11.9 µM; in the experiment on SF-268 CNS it was 27.2 µM; with DU-145 prostate it was 20.9 µM. Besides, the TGI in the experiment with HS 578T breast is above 100 µM; in the experiment on MALME-3M melanoma it was 9.6 µM.
On to `O=C(O)CC(S)C(=O)O.[Li+].[Sb]` (stereo not given), for which the GI50 in the experiment on BT-549 breast was above 100 µM; with NCI-H460 lung, 89.5 µM; in the experiment on OVCAR-4 ovarian it was above 100 µM; with SK-MEL-5 melanoma, 13.7 µM; in the experiment on SF-268 CNS, above 100 µM; in the experiment with DU-145 prostate, above 100 µM. For the same molecule, the GI50 is 44.2 µM with HOP-62 NSCLC and above 100 µM with HS 578T breast. The TGI is above 100 µM in the experiment with BT-549 breast; above 100 µM in the experiment with NCI-H460 lung; above 100 µM in the experiment on OVCAR-4 ovarian; 29 µM in the experiment with SK-MEL-5 melanoma; above 100 µM in the experiment with SF-268 CNS; above 100 µM with DU-145 prostate. Moreover, the TGI with HOP-62 NSCLC and in the experiment with HS 578T breast was above 100 µM in each case.
`CCC(C)C1NC(=O)C(CC(C)C)NC(=O)C(C(C)C)NC(=O)C2CSSCC(NC1=O)C(=O)N2` (stereo not given) (cyclo(CCVLI); disulfide 1-2; configuration not given here): the TGI with BT-549 breast stood at 0.369 µM; in the experiment on NCI-H460 lung, 0.26 µM; in the experiment with OVCAR-4 ovarian, 0.362 µM; with SK-MEL-5 melanoma it was 0.293 µM; with DU-145 prostate, 0.301 µM; in the experiment with HOP-62 NSCLC, 0.554 µM. For the same molecule, the TGI in the experiment with HS 578T breast stood at 0.271 µM; in the experiment on COLO 205 colon it was 0.223 µM.
For `CN1CCN(C(=O)[C@@]2(C)CC[C@]3(C)CC[C@]4(C)C(=CC[C@@H]5[C@@]6(C)CC[C@H](OC(=O)c7cccnc7)C(C)(C)[C@@H]6CC[C@]54C)[C@@H]3C2)CC1`, the GI50 is 1.7 µM with BT-549 breast; 1.78 µM with NCI-H460 lung; 1.78 µM with OVCAR-4 ovarian; 1.65 µM with SK-MEL-5 melanoma; 1.84 µM in the experiment with SF-268 CNS; 1.81 µM in the experiment on DU-145 prostate. Also, the GI50 in the experiment with HS 578T breast is 1.45 µM; in the experiment with COLO 205 colon, 1.83 µM; in the experiment with MALME-3M melanoma it was 1.78 µM. For the same molecule, the TGI in the experiment on BT-549 breast was determined as 3.49 µM; with NCI-H460 lung, 3.33 µM; with OVCAR-4 ovarian it was 3.59 µM; with SK-MEL-5 melanoma it was 3.02 µM; in the experiment with SF-268 CNS, 3.85 µM; in the experiment on DU-145 prostate, 3.51 µM. Further, the TGI was 3.14 µM with HS 578T breast, 3.94 µM in the experiment with COLO 205 colon and 3.54 µM in the experiment with MALME-3M melanoma.
With `COc1ccccc1-c1ccc2c(N)c(C(=O)c3ccc4c(c3)OCO4)sc2n1`, the GI50 is 7.21 µM in the experiment with BT-549 breast; 4.04 µM in the experiment with NCI-H460 lung; 4.52 µM with SK-MEL-5 melanoma; 7.55 µM in the experiment on SF-268 CNS; 15 µM in the experiment on DU-145 prostate; 3.52 µM in the experiment with HOP-62 NSCLC. Besides, the GI50 in the experiment on HS 578T breast was 7.97 µM; in the experiment with COLO 205 colon it was 10 µM; in the experiment with MALME-3M melanoma it was 4.9 µM. Further, the TGI with BT-549 breast stood at 30.2 µM; in the experiment on NCI-H460 lung it was 16.7 µM; with SK-MEL-5 melanoma, 24.2 µM; in the experiment with SF-268 CNS it was 32.4 µM; with DU-145 prostate, 42.6 µM; in the experiment on HOP-62 NSCLC it was 14.7 µM. The TGI in the experiment on HS 578T breast came out at 47.1 µM; in the experiment with COLO 205 colon, 31 µM; in the experiment with MALME-3M melanoma, 16 µM.
